In patent US7799824B2, “Quaternary salt CCR2 antagonists” (OraPharma, Inc., priority 2004, dated 2010):
“And” between values parts separate entries of the source, which are not always exact repeats. Equal entries are not always repeated. Values belong to the compound of their own block, whether it stands above or below them.

Tests used:
[1] = system: Ovalbumin-induced Allergic Rhinitis; test: Ovalbumin-induced allergic rhinitis in mice, prophylactic effect; type: in vivo, BALB/c mice
Experimental: BALB/c mice were sensitized by i.p. injection of OVA emulsified in alum (Day 0, 5, 14, 21). Groups of mice were each challenged by intranasal injection of OVA (Day 22-35, 38). Control group mice received an equal volume of vehicle by intranasal injection. Nasal symptoms (number of sneezes and episodes of nose rubbing by the front paws) were counted during the 5 min period following the last intranasal injection (Day 38). […] The histamine receptor antagonist […]® was used as a positive control.

[2] = system: ovalbumin (OVA)-induced asthma; test: Ovalbumin (OVA)-induced asthma in mice, mast cell-dependent model; type: in vivo; settings: 30 mg/kg i.p., Day 42-46
Experimental: Mice were sensitized by i.p. injection with OVA in saline (10 μg) on alternate days (Day 0, 2, 4, 6, 8, 10, 12). Groups of mice were each challenged by intranasal injection of OVA (Day 40, 43, 46). Compound 17 was administered by i.p. injection (30 mg/kg) on consecutive days (Day 42, 43, 44, 45, 46). Compared to vehicle, leukocyte influx was inhibited by 95% and 55% (in two separate assays), LTC4 influx was inhibited by 90% and IL-4 influx was inhibited by 85%.

[3] = system: ovalbumin (OVA)-induced asthma; test: Ovalbumin (OVA)-induced asthma in mice, mast cell-independent model; type: in vivo
Experimental: Mice were sensitized by i.p. injection of OVA emulsified in adjuvant (Day 1 and 14). Groups of mice were each challenged by intranasal injection of OVA (Day 25, 26, 27). Compound 17 was administered by i.p. injection (10 and 30 mg/kg) before each intranasal challenge (Day 25, 26, 27).

[4] = system: Ovalbumin-induced Allergic Rhinitis; test: Ovalbumin-induced allergic rhinitis in mice, therapeutic effect; type: in vivo, BALB/c mice
Experimental: BALB/c mice were sensitized by i.p. injection of OVA emulsified in alum (Day 0, 5, 14, 21). Groups of mice were each challenged by intranasal injection of OVA (Day 22-35, 38).
Control group mice received an equal volume of vehicle by intranasal injection. Nasal symptoms (number of sneezes and episodes of nose rubbing by the front paws) were counted during the 5 min period following the last intranasal injection (Day 38).
The anti-histamine Pyralimine and the mast cell-stabilizing agent Ketotifen were used as positive controls.

CCR2 = target: T1, CCR2 (Homo sapiens, UniProt P41597); test: MCP-1 Receptor Binding Assay in THP-1 Cells; settings: for IC50: THP-1 cells, 0.5 nM 125I labeled MCP-1, 2 hours at 30° C., read-out: Mean Ligand Binding IC50 (inhibition of MCP-1 binding to CCR2); for inhibition at 25 µM: MCP-1 binding to CCR2, test concentration of 25 μM, unless indicated otherwise, read-out: % Inhibition Ligand Binding
T1 sequence (P41597 1-360 isoform P41597-2): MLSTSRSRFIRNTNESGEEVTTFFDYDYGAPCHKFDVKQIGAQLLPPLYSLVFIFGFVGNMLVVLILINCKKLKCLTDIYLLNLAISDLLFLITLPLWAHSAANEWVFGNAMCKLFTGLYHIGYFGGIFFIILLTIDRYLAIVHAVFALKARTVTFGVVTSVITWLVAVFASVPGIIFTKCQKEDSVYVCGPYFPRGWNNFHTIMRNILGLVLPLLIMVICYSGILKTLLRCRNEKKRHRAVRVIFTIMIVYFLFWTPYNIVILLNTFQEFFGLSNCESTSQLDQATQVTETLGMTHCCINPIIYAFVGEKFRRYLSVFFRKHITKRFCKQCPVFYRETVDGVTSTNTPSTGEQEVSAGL
Outline: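 THP-1 cells; bound radioactivity collected on filter plates and counted by scintillation. Buffer-only blanks subtracted, drug-treated values compared with vehicle; nonspecific binding defined with 1 μM unlabeled MCP-1.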

[5] = positive control, dose not given
[6] = intranasal 10 μg/nostril four times per day, Days 29-38
[7] = positive controls, dose not given

Compound: CN1CCCC(n2nc(Cc3ccc(Cl)cc3)c3ccccc3c2=O)CC1 (stereo not drawn) [Astelin, reference compound]
- inhibition of nasal symptoms (rubbing) [1, 5]: 89%
- inhibition of nasal symptoms (sneezing) [1, 5]: 51%

Compound: C[N+](C)(Cc1ccc(NC(=O)c2ccc(Cl)c(Cl)c2)cc1)C1CCOCC1.[Cl-] [Cpd 17, [4-(3,4-dichloro-benzoylamino)-benzyl]-dimethyl-(tetrahydro-pyran-4-yl)-ammonium chloride]
- inhibition of IL-4 influx compared to vehicle [2]: 85%
- inhibition of LTC4 influx compared to vehicle [2]: 90%
- inhibition of leukocyte influx compared to vehicle ([2]; two separate assays): 95% and 55%
- inhibition of leukocyte influx compared to vehicle ([3]; 10 mg/kg i.p. before each intranasal challenge): 40%
- inhibition of leukocyte influx compared to vehicle ([3]; 30 mg/kg i.p. before each intranasal challenge): 70%
- inhibition of nasal symptoms (rubbing) ([1]; intranasal 10 μg/nostril): 57%
- inhibition of nasal symptoms (sneezing) ([1]; intranasal 10 μg/nostril): 64%
- inhibition of nasal symptoms (rubbing) ([1]; intranasal 30 μg/nostril): 71%
- inhibition of nasal symptoms (sneezing) ([1]; intranasal 30 μg/nostril): 82%
- inhibition of nasal symptoms (rubbing) [4, 6]: 42%
- inhibition of nasal symptoms (sneezing) [4, 6]: 0%

Compound: C[N+](C)(Cc1ccc(NC(=O)c2cc3ccccc3o2)cc1)C1CCCCC1 [Cpd 157, {4-[(benzofuran-2-carbonyl)-amino]-benzyl}-cyclohexyl-dimethyl-ammonium iodide]
- IC50 (CCR2): 690 nM

Compound: Cn1c(C(=O)Nc2ccc(C[N+](C)(C)C3CCOCC3)cc2)cc2ccccc21 [Cpd 158, dimethyl-{4-[(1-methyl-1H-indole-2-carbonyl)-amino]-benzyl}-(tetrahydro-pyran-4-yl)-ammonium iodide]
- IC50 (CCR2): 400 nM

Compound: C[N+](C)(Cc1ccc(NC(=O)c2cc3cc(Cl)ccc3[nH]2)cc1)C1CCOCC1 [Cpd 159, {4-[(5-chloro-1H-indole-2-carbonyl)-amino]-benzyl}-dimethyl-(tetrahydro-pyran-4-yl)-ammonium iodide]
- IC50 (CCR2): 190 nM

Compound: C[N+](C)(Cc1ccc(NC(=O)c2cc3cc(Br)ccc3[nH]2)cc1)C1CCOCC1 [Cpd 160, {4-[(5-bromo-1H-indole-2-carbonyl)-amino]-benzyl}-dimethyl-(tetrahydro-pyran-4-yl)-ammonium iodide]
- IC50 (CCR2): 290 nM

Compound: Cn1cc(C(=O)Nc2ccc(C[N+](C)(C)C3CCOCC3)cc2)c2ccccc21 [Cpd 161, dimethyl-{4-[(1-methyl-1H-indole-3-carbonyl)-amino]-benzyl}-(tetrahydro-pyran-4-yl)-ammonium iodide]
- inhibition at 25 µM (CCR2): 33%

Compound: C[N+](C)(Cc1ccc(NC(=O)c2cn(Cc3ccccc3)c3ccccc23)cc1)C1CCOCC1 [Cpd 162, {4-[(1-benzyl-1H-indole-3-carbonyl)-amino]-benzyl}-dimethyl-(tetrahydro-pyran-4-yl)-ammonium iodide]
- IC50 (CCR2): 1600 nM

Compound: Cn1c(C(=O)Nc2ccc(C[N+](C)(C)C3CCCCC3)cc2)cc2ccccc21 [Cpd 163, cyclohexyl-dimethyl-{4-[(1-methyl-1H-indole-2-carbonyl)-amino]-benzyl}-ammonium iodide]
- IC50 (CCR2): 620 nM

Compound: C[N+](C)(Cc1ccc(NC(=O)c2cc3cc(Cl)ccc3[nH]2)cc1)C1CCCCC1 [Cpd 164, {4-[(5-chloro-1H-indole-2-carbonyl)-amino]-benzyl}-cyclohexyl-dimethyl-ammonium iodide]
- IC50 (CCR2): 200 nM

Compound: C[N+](C)(Cc1ccc(NC(=O)c2cc3cc(Cl)ccc3[nH]2)cc1)C[C@@H]1CCCO1 [Cpd 165, (2S)-{4-[(5-chloro-1H-indole-2-carbonyl)-amino]-benzyl}-dimethyl-(tetrahydro-furan-2-ylmethyl)-ammonium iodide]
- IC50 (CCR2): 3300 nM

Compound: C[N+](C)(Cc1ccc(NC(=O)c2cc3cc(Cl)ccc3[nH]2)cc1)CC1CC2CCC1C2 (stereo not drawn) [Cpd 166, bicyclo[2.2.1]hept-2-ylmethyl-{4-[(5-chloro-1H-indole-2-carbonyl)-amino]-benzyl}-dimethyl-ammonium iodide]
- IC50 (CCR2): 110 nM

Compound: C[N+](C)(Cc1ccc(NC(=O)C2=Cc3cc(Cl)c(Cl)cc3OCC2)cc1)C1CCOCC1 [Cpd 167, {4-[(7,8-dichloro-2,3-dihydro-benzo[b]oxepine-4-carbonyl)-amino]-benzyl}-dimethyl-(tetrahydro-pyran-4-yl)-ammonium iodide]
- IC50 (CCR2): 240 nM

Compound: C[N+](C)(Cc1ccc(NC(=O)C2=Cc3cc(Cl)c(Cl)cc3OCC2)cc1)C1CCCCC1 [Cpd 168, cyclohexyl-{4-[(7,8-dichloro-2,3-dihydro-benzo[b]oxepine-4-carbonyl)-amino]-benzyl}-dimethyl-ammonium iodide]
- IC50 (CCR2): 1000 nM

Compound: C[N+](C)(Cc1ccc(NC(=O)C2=Cc3cc(Cl)c(Cl)cc3OCC2)cc1)C1CC2CCC1C2 (stereo not drawn) [Cpd 169, bicyclo[2.2.1]hept-2-yl-{4-[(7,8-dichloro-2,3-dihydro-benzo[b]oxepine-4-carbonyl)-amino]-benzyl}-dimethyl-ammonium iodide]
- IC50 (CCR2): 240 nM

Compound: CN1CCC(=C2c3ccccc3CC(=O)c3sccc32)CC1 [Ketotifen]
- inhibition of nasal symptoms (rubbing) [4, 7]: 81%
- inhibition of nasal symptoms (sneezing) [4, 7]: 50%

Compound: COc1ccc(CN(CCN(C)C)c2ccccn2)cc1 [Pyralimine]
- inhibition of nasal symptoms (rubbing) [4, 7]: 85%
- inhibition of nasal symptoms (sneezing) [4, 7]: 60%

Results, then the compound that gave them:

- inhibition at 25 µM (CCR2): 36%
Compound: C[N+](C)(Cc1ccc(CNC(=O)C2=Cc3cc(Cl)c(Cl)cc3OCC2)cc1)C1CCOCC1 [Cpd 170, (4-{[(7,8-dichloro-2,3-dihydro-benzo[b]oxepine-4-carbonyl)-amino]-methyl}-benzyl)-dimethyl-(tetrahydro-pyran-4-yl)-ammonium iodide]

- IC50 (CCR2): 560 nM
Compound: C[N+](C)(Cc1ccc(NC(=O)C2=Cc3cc(Cl)c(Cl)cc3OCC2)cc1)C1CCSC1 (stereo not drawn) [Cpd 171, {4-[(7,8-dichloro-2,3-dihydro-benzo[b]oxepine-4-carbonyl)-amino]-benzyl}-dimethyl-(tetrahydro-thiophen-3-yl)-ammonium iodide]

- inhibition at 25 µM (CCR2): 17%
Compound: C[N+](C)(Cc1ccc(NC(=O)c2cncc(Br)c2)cc1)C1CCOCC1 [Cpd 172, {4-[(5-bromo-pyridine-3-carbonyl)-amino]-benzyl}-dimethyl-(tetrahydro-pyran-4-yl)-ammonium iodide]

- IC50 (CCR2): 8100 nM
Compound: C[N+](C)(Cc1ccc(NC(=O)c2ccnc(Cl)c2)cc1)C1CCOCC1 [Cpd 173, {4-[(2-chloro-pyridine-4-carbonyl)-amino]-benzyl}-dimethyl-(tetrahydro-pyran-4-yl)-ammonium iodide]

- inhibition at 25 µM (CCR2): 52%
Compound: C[N+](C)(Cc1ccc(NC(=O)c2sc3ccccc3c2Cl)cc1)C1CCOCC1 [Cpd 174, {4-[(3-chloro-benzo[b]thiophene-2-carbonyl)-amino]-benzyl}-dimethyl-(tetrahydro-pyran-4-yl)-ammonium iodide]

- IC50 (CCR2): 1500 nM
Compound: C[N+](C)(Cc1ccc(NC(=O)c2cc(Cl)sc2Cl)cc1)C1CCOCC1 [Cpd 175, {4-[(2,5-dichloro-thiophene-3-carbonyl)-amino]-benzyl}-dimethyl-(tetrahydro-pyran-4-yl)-ammonium iodide]

- IC50 (CCR2): 260 nM
Compound: C[N+](C)(Cc1ccc(NC(=O)c2cc3ccccc3s2)cc1)C1CCOCC1 [Cpd 176, {4-[(benzo[b]thiophene-2-carbonyl)-amino]-benzyl}-dimethyl-(tetrahydro-pyran-4-yl)-ammonium iodide]

- IC50 (CCR2): 170 nM
Compound: C[N+](C)(Cc1ccc(NC(=O)c2cc3ccccc3s2)cc1)C1CCCCC1 [Cpd 177, {4-[(benzo[b]thiophene-2-carbonyl)-amino]-benzyl}-cyclohexyl-dimethyl-ammonium iodide]

- IC50 (CCR2): 8800 nM
Compound: C[N+](C)(Cc1ccc(NC(=O)c2sc3ccccc3c2Cl)cc1)C1CCCCC1 [Cpd 178, {4-[(3-chloro-benzo[b]thiophene-2-carbonyl)-amino]-benzyl}-cyclohexyl-dimethyl-ammonium iodide]
